Data on two compounds can be found in ChEMBL document CHEMBL4613241, “Disulfide Cleavage in a Dimeric Epipolythiodioxopiperazine Natural Product Diminishes Its Apoptosis-Inducing Effect but Enhances Autophagy in Tumor Cells” (2020).

Assay [1] concerns HepG2. As to the kind of experiment: Induction of apoptosis in human HepG2 cells assessed as increase in cleaved PARP level by measuring ratio of cleaved PARP to total PARP level at 2 uM after 12 hrs by Western blot analysis. The class given is functional.
The subject of assay [2] is HepG2. As to the kind of experiment: Induction of apoptosis in human HepG2 cells assessed as increase in cleaved PARP level by measuring ratio of cleaved PARP to total PARP level at 1 uM after 12 hrs by Western blot analysis. The class given is functional.
In assay [3] the test system is HepG2. As to the kind of experiment: Induction of autophagy in human HepG2 cells assessed as increase in formation of autophagosomes at 0.5 uM by TEM analysis. The following applies: TDE = time-dependent effect. In kind it is functional, cell-based.
Assay [4] has as its system T-24. As to the kind of experiment: Induction of apoptosis in human T24 cells assessed as increase in cleaved PARP1 level at 0.25 to 2 uM after 12 hrs by Western blot analysis. The class given is functional, cell-based.
The subject of assay [5] is HepG2. Put plainly: Induction of autophagy in human HepG2 cells assessed as inhibition of lactate generation at 0.5 uM up to 4 hrs. In kind it is functional, cell-based.
For assay [6], the system named is HepG2. Put plainly: Antiproliferative activity against human HepG2 cells assessed as reduction in cell viability at 5 uM by MTS assay. The class given is functional, cell-based. The conditions noted are these: TDE = time-dependent effect.
Assay [7] has as its system HepG2. As to the kind of experiment: Induction of autophagy in human HepG2 cells assessed as ratio of LC3-2 level to total ERK level at 0.5 uM after 2 hrs in presence of 2-DG by Western blot analysis (reference value: 1.1). The class given is functional.
Assay [8] has as its system HepG2. As to the kind of experiment: Induction of autophagy in human HepG2 cells assessed as inhibition of lactate generation at 5 uM up to 4 hrs. In kind it is functional, cell-based.
Assay [9] has as its system HepG2. As to the kind of experiment: Induction of autophagy in human HepG2 cells assessed as increase in formation of autophagosome-like vacuoles at 0.5 uM after 2 to 48 hrs by TEM analysis. In kind it is functional, cell-based.
In assay [10] the test system is HepG2. Put plainly: Inhibition of colony formation in human HepG2 at 1 to 5 uM after 2 weeks by trypan blue staining based assay. In kind it is functional, cell-based.

Molecules are shown by their SMILES. Active and inactive are the calls of the source. The rule behind the calls is not given here.

`CC[C@@]12SS[C@]3(C(=O)N1C)[C@@H](O)C1(C45c6ccccc6N[C@@H]4N4C(=O)[C@]6([C@@H](C)O)SS[C@]4(C(=O)N6C)[C@H]5O)c4ccccc4N[C@@H]1N3C2=O` (stereo not given in full): the Ratio amounted to 1.7 in assay [1] and 1 in assay [2]. Besides, the Activity result in [3] was “Tde”. Also, the result in assay [4] was Active. The inhibition entry in [5] is “Active”.

As for `CCC1(SC)C(=O)N2[C@H]3N(C)c4ccccc4C3(C34c5ccccc5N(C)[C@@H]3N3C(=O)C(SC)([C@@H](C)O)N(C)C(=O)C3(SC)[C@H]4O)[C@H](O)C2(SC)C(=O)N1C` (stereo not given in full), the Activity entry in assay [6] is “Tde”. Further, the Ratio in assay [7] came to 1. For the same compound, the inhibition result in [8] and in assay [10] was “Active” each time. The outcome in assay [9] was Active.
